Patent US20210379112A1, “STEM CELL THERAPY” (PLASTICELL LIMITED, priority 2018, published 2021)

Key:
UCB derived CD133+ cells = experiment: Ex vivo expansion of umbilical cord blood CD133+ cells (flow cytometry, counting beads); assay type: cell-based, human; conditions: for fold expansion of total nucleated cells (TNC) compared to cells grown in basal media / fold expansion of HSC (Lin−, CD38−, CD34+, CD45RA−, CD133+, CD90+, CD49f+) above basal media containing cytokines / fold expansion of HSC compared to cells grown in basal media: UCB cells; for fold expansion of total nucleated cells (TNC) compared to cells grown in basal media: 5 days culture, vs basal media with cytokines, WR1065 added 16-20 h before harvest; for fold expansion of HSC (Lin−, CD38−, CD34+, CD45RA−, CD133+, CD90+, CD49f+) above basal media containing cytokines / fold expansion of HSC compared to cells grown in basal media: 5 days; for fold expansion of HSC (Lin−, CD38−, CD34+, CD45RA−, CD133+, CD90+, CD49f+) above basal media containing cytokines: scriptaid 1 μM, WR1065 100 μM, FIG. 3; for fold expansion of HSC compared to cells grown in basal media: result in words, FIG. 7-12
From the text: Human UCB units were collected with written informed pre-consent and ethical approval from Oxford and Berkshire National Research Ethical Committees and studies conducted with approval of the NHSBT research committee. UCB mononuclear cells (MNC) were isolated by density gradient centrifugation on lymphocyte separation medium 1077 (PAA Laboratories, Pasching, Austria; density<1.077 g/ml). CD133+ cells were isolated from the MNC with immunomagnetic beads (Miltenyi Biotec, Germany). After isolation, the cells were cryopreserved in 10% DMSO in FCS (fetal calf serum) and stored at −150° C. in aliquots of 1×10^5 cells/vial. Cells were analysed for the purity of the isolation with flow cytometry on a BD LSR II (BD Biosciences, CA) using CD34-APC, CD133-PE and the appropriate isotype controls (all Miltenyi Biotec). Bone marrow derived CD133+ cells were obtained commercially from Lonza and peripheral blood CD133+ cells were isolated using immunomagnetic beads as above from total peripheral blood mononuclear cells obtained commercially from Lonza Biologies.
Vials from 2 or 3 donors were thawed and pooled in StemSpan ACF media (Stem Cell Technologies) containing 100 ng/mL SCF, 100 ng/mL FLT3LG and 20 ng/mL TPO (all from Miltenyi Biotec). After counting, cells were plated in 96 well round bottom suspension plates at 20,000 cells/well in the above media. Cells were allowed to recover overnight in these conditions in a 37° C. humidified incubator with 5% CO2.
The next day cells were harvested from the plates counted, and seeded into 24 well Nanex plates (Compass Biomedical) or standard tissue culture treated plates at 2500 cells/well in 1 mL basal media (StemSpan ACF with 100 ng/mL SCF, 100 ng/mL FLT3LG and 20 ng/mL TPO) containing an HDAC inhibitor (for most experiments scriptaid was used at a concentration of 1 μM). An aliquot of cells was used for CFU analysis and another for flow cytometry analysis.
After 3 days in culture the media was either replaced or supplemented with fresh media with the cytokines (SCF, TPO and FLT3LG) and the HDAC inhibitors (scriptaid 1 μM). Sixteen to twenty hours prior to harvest WR1065 was added at a concentration of 100 μM. After total of 5 days in expansion, cells are harvested, counted and analysed by flow cytometry.
Cells were harvested, washed and stained in 3% FBS in PBS using a panel of pre-conjugated antibodies. Cells were incubated with antibodies on ice for 30 min, then washed twice in 3% FBS in PBS and resuspended in 250 uL of above buffer before being analysed using a BD Canto II flow cytometer. [Antibody panel was as follows: 5 Lin custom cocktail (CD235a, CD4, CD10, CD11b and CD19) APC-Vio770, CD38-PE-Vio770, CD34-PerCP-Vio700, CD133-PE, CD45RA-VioBlue, CD49f-FITC, CD90-APC (all from Miltenyi Biotec).]
Cell number was measured using flow cytometry with the aid of counting beads (CountBright beads Life Technologies).

irradiated NSG mice = experiment: Repopulation capacity of expanded cord blood cells in immuno-compromised NSG mice (secondary recipients); conditions: secondary recipient mice, bled at week 8; mice received cord blood cells expanded ex vivo with the substance; FIG. 15
Procedure: The effect of different ex vivo expansion protocols on the ability of the cells to repopulate bone marrow in vivo was investigated. Cells were obtained from cord blood and four cell preparations were produced—1. Unexpanded cells, 2. Cells expanded in the presence of vehicle, 3. Cells expanded in the presence of scriptaid (expanded+SS—FIG. 15), 4. Cells expanded in the presence of scriptaid and WR1065 (expanded+SW—FIG. 15). These cell preparations were then injected into irradiated adult (<8 weeks) male NSG (NOD.Cg-Prkdc^scid II2rcf^Im1Wjl/SzJ) mice. Flow cytometry analysis was performed on blood samples taken at week 15 (CD45^hu & CD45^mu only) to identify animals with evidence of clear engraftment (human CD45+ cells in the blood at week 12, and week 15 human CD45+ count above 1%). Ten of the animals with human CD45+ count above 1%, were used as donors for 10 secondary recipients in one to one manner. At week 20 after cell administration the primary animals were sacrificed. Bone marrow samples were harvested from femurs and tibias and the cells were washed before being counted. 50% of the recovered cells were injected into secondary irradiated animals. In this manner the long term engraftment capabilities of the expanded cells could be determined. The secondary animals were bled at week 8 and whole blood samples analysed by FACs for evidence of engraftment. […]

[1] = tested on: bone marrow derived CD34+ cells; conditions: pre-treatment of bone marrow derived CD34+ cells, in vitro; background; cited from earlier work
[2] = UCB cells from three separate donors and a pooled sample, FIG. 13

SMILES	fold expansion of total nucleated cells (TNC) compared to cells grown in basal media (UCB derived CD133+ cells)	fold expansion of HSC (Lin−, CD38−, CD34+, CD45RA−, CD133+, CD90+, CD49f+) above basal media containing cytokines (UCB derived CD133+ cells)	fold expansion of HSC compared to cells grown in basal media (UCB derived CD133+ cells)	further results
O=C(CCCCCN1C(=O)c2cccc3cccc(c23)C1=O)NO [scriptaid]	slightly reduced	approximately 10 fold	–	fold expansion of HSC compared to cells cultured in basal media on different culture surfaces (UCB derived CD133+ cells; Nanex scaffolds, TC treated Corning 24 well plates, suspension Greiner Bio 24 well plates, effect similar across surfaces, FIG. 14): significantly increased; fold expansion of HSC compared to cells cultured on basal media, average (UCB derived CD133+ cells; [2]): 30 fold; fold expansion of HSC compared to cells cultured on basal media, range (UCB derived CD133+ cells; [2]): 10-55 fold; proportion of CD133+/CD34+ cells compared to cells grown on cytokines alone (UCB derived CD133+ cells; after 5 days in culture): increase; average frequency of human CD45+ cells in whole blood, percentage of viable singlets (irradiated NSG mice): 0.04%
NCCCNCCS [WR1065]	–	around 3 fold	–	enhancement of formation of CFU-GEMM and BFU-E colonies [1]: ≤ 38 fold
Nc1cc(F)ccc1NC(=O)/C=C/c1cnn(C/C=C/c2ccccc2)c1 [RGFP966]	increase	–	similar	–
Cn1cc(CNCC2CCN(c3ncc(C(=O)NO)cn3)CC2)c2ccccc21 [quisinostat]	slightly lower	–	significantly increased	–
Cc1cc(C)cc(C(=O)NOCCCCCC(=O)NO)c1 [LMK235]	slightly lower	–	significantly increased	–
CN1CCc2c(c3ccccc3n2Cc2ccc(C(=O)NO)cc2)C1 [Tubastatin A]	similar	–	significantly increased	–
